{"source": "patent EP1886664A1", "about": "“N-chloroamines containing compositions” (priority 2006, dated 2008)", "origin": "cited, not measured here", "key": {"[1]": {"tested_on": "Bacteria, Viruses, Fungi, Seaweed, Yeasts, Parasite"}, "[2]": {"tested_on": "bacterial flora in the oral cavity"}, "mouse [3]": {"tested_on": "mouse", "settings": "after 90 days"}, "mouse [4]": {"tested_on": "mouse", "settings": "inhalation, 4 hours, maximum reached concentration"}, "Skin": {"tested_on": "Skin", "settings": "solution under 8%"}, "[5]": {"settings": "according to Buckley"}}, "note": "Where two headings read alike, the source gives them in different places."}
{"smiles": "Cc1ccc(S(=O)(=O)NCl)cc1", "note": "[T-chloramine, sodium N-chloro-para-toluenesulfamide]", "values": [{"measurement": "fraction still active", "setting": "ambient with organic matter and microorganisms, after 24 hours", "value": "approximately half"}, {"measurement": "activity lost due to decomposition", "setting": "solution under 5%, opaque container, 25°C, 210 days", "value": "less than 0.05%"}, {"measurement": "decomposed", "setting": "solutions under 0.5%, 30 days, 40°C", "value": 0.01, "unit": "%"}, {"measurement": "biocide action", "setting": "[1]; including viruses and microbacteria in the vegetative form either spori or not", "value": "biocide action against all forms of microorganisms"}, {"measurement": "activity against microorganisms", "setting": "[1]; organisms listed in the 1st table, the 2nd table and b31", "value": "active"}, {"measurement": "duration of antiseptic action when applied as a therapeutics", "setting": "[2]; in vivo", "value": 24, "unit": "h"}, {"measurement": "duration of strong sustainable effect after application", "setting": "[2]; mouthrinse", "value": "at least one"}, {"measurement": "oral toxicity, level at which nothing was observed", "setting": "mouse [3]", "value": 15, "unit": "mg/kg/day"}, {"measurement": "Irritation, Eye", "setting": "Eye; Solution under 0.5%", "value": "not irritating"}, {"measurement": "Irritation, Eye", "setting": "Eye; solution under 8%", "value": "moderately irritating"}, {"measurement": "LC 50", "setting": "mouse [4]", "value": "> 0.275", "unit": "µg/mL"}, {"measurement": "Irritation, Skin", "setting": "Skin", "value": "not irritating"}, {"measurement": "antiseptic power compared to hypochlorites", "setting": "[5]", "value": "four times higher than that of hypochlorites"}, {"measurement": "activity compared to Dakin's liquid", "setting": "[5]; in the presence of blood", "value": "more active than the Dakin's liquid"}]}
{"smiles": "N=C(NCCCCCCNC(=N)NC(=N)Nc1ccc(Cl)cc1)NC(=N)Nc1ccc(Cl)cc1", "note": "[chlorexidine]", "values": [{"measurement": "sporicide, viruscide and microbacteria activity", "setting": "microbacteria", "value": "neither a sporicide, neither a viruscide and nor active against microbacteria"}]}
